Consider five compounds from US12558357B2, “Tetrahydroquinazoline derivatives as selective cytotoxic agents” (Merck Sharp & Dohme LLC, priority 2020, dated 2026).

pEC50: −log10 of the molar value.

Usually pEC50 stands for the EC50 on a negative log10 scale, so that one unit is a factor of ten.

For this assay, the system named is PBMCs infected with VSV-G pseudotyped HIV virus (VSV-G/pNLG1-P2A-ΔEnv). In words: cells. The following applies: Homo sapiens, PBMC, read-out: EC50 (HIV-TACK cell kill activity). Format: cell-based, human.
Consider `CC(F)(F)c1ncn(Cc2ccc3c(c2)NC(=O)N[C@]3(C#CC2CC2)C(F)(F)F)c(=O)c1N` [Example 81, (S)-7-((5-amino-4-(1,1-difluoroethyl)-6-oxopyrimidin-1(6H)-yl)methyl)-4-(cyclopropylethynyl)-4-(trifluoromethyl)-3,4-dihydroquinazolin-2(1H)-one], for which the pEC50 was 6.78. Regarding `COc1ccc(=O)n(Cc2cc3c(cc2F)[C@@](C#CC2CC2)(C(C)(F)F)NC(=O)N3)n1` [Example 82, (S)-4-(cyclopropylethynyl)-4-(1,1-difluoroethyl)-6-fluoro-7-((3-methoxy-6-oxopyridazin-1(6H)-yl)methyl)-3,4-dihydroquinazolin-2(1H)-one], the pEC50 was 7.18.

Turning to `COc1cnn(Cc2cc3c(cc2F)[C@@](C#CC2CC2)(C(C)(F)F)NC(=O)N3)c(=O)c1` [Example 83, (S)-4-(cyclopropylethynyl)-4-(1,1-difluoroethyl)-6-fluoro-7-((4-methoxy-6-oxopyridazin-1(6H)-yl)methyl)-3,4-dihydroquinazolin-2(1H)-one], the pEC50 was 7.29. Consider `COc1ccn(Cc2cc3c(cc2F)[C@@](C#CC2CC2)(C(C)(F)F)NC(=O)N3)c(=O)c1` [Example 84, (S)-4-(cyclopropylethynyl)-4-(1,1-difluoroethyl)-6-fluoro-7-((4-methoxy-2-oxopyridin-1(2H)-yl)methyl)-3,4-dihydroquinazolin-2(1H)-one], for which the pEC50 was 7.52. With `Cc1cn(Cc2cc3c(cc2F)[C@@](C#CC2CC2)(C(C)(F)F)NC(=O)N3)c(=O)c(N)n1` [Example 85, (S)-7-((3-amino-5-methyl-2-oxopyrazin-1(2H)-yl)methyl)-4-(cyclopropylethynyl)-4-(1,1-difluoroethyl)-6-fluoro-3,4-dihydroquinazolin-2(1H)-one], the pEC50 is 7.85.
